The values that follow come from patent US20240245694A1, “Tricyclic Compounds and their Uses” (Novartis AG, priority 2022, published 2024).

As a reminder, the GI50 is the concentration giving 50% growth inhibition. As usually defined, the IC50 is the point on the concentration scale where inhibition reaches its midpoint. Read a high IC50 as lower potency.

One test deals with SW48 cells. Description: Proliferation assay SW48 (CellTiterGlo, 96 hours). The class given is cell-based. The following applies: Homo sapiens. The source says:
(§1) The colon carcinoma cell lines SW48 (RRID: CVCL_1724), HCT 116 (RRID: CVCL_0291) and SNU-407 (RRID: CVCL_5058) were obtained from ATCC. The WRN-knockdown insensitive colon carcinoma cell line DLD-1 (RRID: CVCL_0248) was obtained from the Korean Cell Line Bank (KCLB), and used to generate a derivative in which the endogenous WRN gene copies were knocked out by CRISPR-mediated editing using standard CRISPR methods. The resulting cell line, DLD1-WRN-KO, was used to assess potential off-target compound effects.
(§2) SW48, SNU-407 and DLD1-WRN-KO cells were cultured in growth medium composed of RPMI-1640 (Amimed Cat #1-41F22-1), 2 mM L-Glutamine (Amimed Cat #5-10K50), 10 mM HEPES (Gibco Cat #15630-056), 1 mM sodium pyruvate (Amimed Cat #5-60F00-H), 1× Penicillin-Streptomycin (Amimed Cat #4-01F00-H) and 10% fetal calf serum (Amimed Cat #2-01F30-G, Lot #LB11566P). HCT 116 cells were cultured in growth medium composed of McCoys 5A (Amimed catalog #1-18F01-1), 2 mM L-Glutamine (Amimed Cat #5-10K50), 1× Penicillin-Streptomycin (Amimed Cat #4-01F00-H) and 10% fetal calf serum (Amimed Cat #2-01F30-G, Lot #LB11566P). All cells were maintained at 37° C. in a humidified 5% CO2 incubator.
(§3) Following filtration through a Steriflip-NY 20 μm filter (Millipore Cat #SCNY00020), trypsinized cells were seeded in 100 microliters growth medium at 2′000 (SW48) or 1′500 (SNU-407, DLD1-WRN-KO, HCT 116) cells/well into white, clear-bottom 96-well plates (Costar Cat #3903). Three replicate plates were prepared for each compound treatment condition. In addition, one plate (termed “day 0”) was prepared to quantify the number of viable cells at the time of compound addition. Following overnight incubation at 37° C. in a humidified 5% CO2 atmosphere, eight 3-fold serial dilutions of a given compound stock (obtained at a concentration of 10 mM in DMSO and stored at 4° C.) were dispensed directly into each of the triplicate assay plates using a HP 300D non-contact Digital Dispenser (TECAN). The final concentration of DMSO was normalized to 0.1% in all wells. 96 hours after compound addition, cellular ATP levels as a surrogate for cell viability was assessed following addition of 50 microliters CellTiterGlo (Promega Cat #G7573) reagent and luminescence quantification on a MPLEX multi-mode plate-reader (TECAN) following a 10 minute incubation at room temperature. The number of viable cells in the “day 0” plate were quantified identically on the day of compound addition.
(§4) For data analysis, the assay background signal that was determined in wells containing medium, but no cells, was subtracted from all other data points prior to further calculations. The extent of growth inhibition and potential cell kill was assessed by comparing the ATP levels (measured using CellTiterGlo, Promega) in compound-treated cells with those present at the time of compound addition. To this end, the following conditional concept was programmatically applied in HELIOS, an in-house software applying a multi-step decision tree to arrive at optimal concentration response curve fits (Gubler et al, SLAS DOI: 10.1177/2472555217752140) to calculate % growth (% G) for each compound-treated well: % G=(T−V0)/V0))*100 when T<V0, and % G=(T−V0)/(V−V0)))*100 when T>V0, where V0 is the viability level at time of compound addition, while V and T represent vehicle-control and compound-treated viability levels, respectively, at the end of the compound incubation. 100%, 0% and −100% signify absence of growth inhibition, growth stasis, and complete cell kill, respectively. Compound concentrations leading to half-maximal growth inhibition (G150) and residual cell viability at the highest tested compound concentration (Data (cmax), expressed in percent) were routinely calculated. Data analysis can also be carried out using commercially available software designed to derive IC50 values using 4-parameter fits (e.g. GraphPad Prism, XL fit). […]

The target of test [1] is WRN helicase (core helicase motif aa N517-P1238) (Homo sapiens (Human), UniProt Q14191). Description: WRN ATPase assay (ADP-Glo), DNA dependent ATP hydrolysis. The test is classed as biochemical. The conditions noted are these: 3 hours pre-incubation, 300 micromolar ATP, FLAP26 ssDNA; geometric means of at least 2 determinations. The source says:
An ATPase assay was set up to measure the DNA dependent ATP hydrolysis activity of WRN helicase. This assay was used also to assess the inhibition properties of compounds of the invention on DNA dependent WRN ATPase activity.
The core helicase motif of the WRN protein (aa N517-P1238) was produced for this assay (protein production as described above). A 45 oligonucleotide sequence called “FLAP26” as described by Brosh et al., 2009, DOI: 10.1074/jbc.M111446200 ([…]; SEQ ID NO: 2) was purchased from IDT (Integrated DNA Technologies, Leuven, Belgium) and used as single strand DNA substrate. The ADP-Glo assay kit (Promega, Madison, WI) allowing the quantification of ADP produced in ATP hydrolysis reactions was used for setting up this assay. Time course experiments were first performed in order to determine the best enzymatic assay conditions (including buffer conditions, reaction time and concentrations of protein, ATP and DNA substrates). A typical reaction consists of 10 nM WRN protein, 0.2 nM FLAP26, and 300 micromolar ATP in the following assay buffer: 30 mM Tris pH7.5, 2 mM MgCl2, 0.02% BSA, 50 mM NaCl, 0.1% pluronic F127 prepared in DNAse free water.
To evaluate the inhibition properties of compounds of the invention, serial dilutions were prepared in DMSO (10 half log dilutions from a 10 mM DMSO solution). 50 nanoliters of each concentration was pre-incubated for 3 hours in a 384 small volume assay plate (Greiner #784075) with 2.5 microliters of a 20 nM WRN helicase protein in assay buffer with 600 micromolar ATP. Control wells were included with a “high control” (no inhibition), containing DMSO with no test compound, and “low controls” (maximal inhibition), containing buffer without protein. The reaction was started by addition of 2.5 microliters of FLAP26 at 0.4 nM and incubated for 30 minutes at room temperature. The reaction was stopped with the addition of 5 microliters of the first ADP-Glo reagent and incubated for one hour to remove the excess amount of ATP. Afterwards, 10 microliters of ATP detection reagent was added and incubated for an additional hour before reading. Luminescence output was recorded using Tecan 1000 reader, with 5 minutes delay before reading. Each concentration of compound was tested in duplicates in the assay plate.
Data analysis was carried out using an in-house developed software (Novartis Helios software application, Novartis Institutes for BioMedical Research, unpublished) using the methods described by Formenko et al., 2006, DOI: 10.1016/j.cmpb.2006.01.008. Following normalization of activity values for the wells to % inhibition (% inhibition=[(high control-sample)/(high control-low control)]×100), IC50 fitting was carried out from the duplicate determinations present on each plate according to [4]. Data analysis can also be carried out using commercially available software designed to derive IC50 values using 4-parameter fits (e.g. GraphPad Prism, XL fit). The reported IC50 values are the geometrical means of at least 2 independent replicates.
A general note: ADP-Glo turns the ADP formed in a reaction into a luminescent signal.

The next test deals with DLD1-WRN-KO cells. Description: Proliferation assay DLD1-WRN-KO (CellTiterGlo, 96 hours), off-target effects. The test is classed as cell-based. The following applies: Homo sapiens.
Source text: as §1, §2, §3, §4

WRN helicase (core helicase motif aa N517-P1238), sequence (Q14191 517-1238): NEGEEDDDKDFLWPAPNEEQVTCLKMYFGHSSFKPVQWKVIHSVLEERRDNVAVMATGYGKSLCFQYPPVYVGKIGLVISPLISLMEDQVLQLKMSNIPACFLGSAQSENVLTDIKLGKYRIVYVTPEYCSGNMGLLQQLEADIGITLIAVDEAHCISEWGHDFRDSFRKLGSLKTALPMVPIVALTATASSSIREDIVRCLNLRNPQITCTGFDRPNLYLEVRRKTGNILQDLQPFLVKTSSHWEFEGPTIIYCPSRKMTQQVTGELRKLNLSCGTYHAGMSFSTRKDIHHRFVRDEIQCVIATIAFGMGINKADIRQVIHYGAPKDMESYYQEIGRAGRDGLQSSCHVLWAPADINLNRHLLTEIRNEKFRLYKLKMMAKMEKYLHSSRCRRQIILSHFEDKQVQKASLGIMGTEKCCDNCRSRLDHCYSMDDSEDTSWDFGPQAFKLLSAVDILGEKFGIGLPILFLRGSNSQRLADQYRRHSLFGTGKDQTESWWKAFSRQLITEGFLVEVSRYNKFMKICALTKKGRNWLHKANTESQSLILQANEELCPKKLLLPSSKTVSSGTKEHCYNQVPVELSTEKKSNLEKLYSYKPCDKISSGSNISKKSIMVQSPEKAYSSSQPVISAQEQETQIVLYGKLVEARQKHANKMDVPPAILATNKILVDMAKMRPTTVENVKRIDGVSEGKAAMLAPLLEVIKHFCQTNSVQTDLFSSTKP

In the case of `C[C@@H]1C[C@H](C(=O)Nc2ccc(C(F)(F)F)cc2Cl)n2c1c(N1CCN(C(=O)c3ncncc3O)CC1)c(=O)n1nc(C3=CCOCC3)nc21` [Example 13, (7R,9R)—N-(2-chloro-4-(trifluoromethyl)phenyl)-2-(3,6-dihydro-2H-pyran-4-yl)-6-(4-(5-hydroxypyrimidine-4-carbonyl)piperazin-1-yl)-7-methyl-5-oxo-5,7,8,9-tetrahydropyrrolo[1,2-c][1,2,4]triazolo[1,5-a]pyrimidine-9-carboxamide], the GI50 with SW48 cells is 40 nM; with DLD1-WRN-KO cells, greater than 10000 nM. The same molecule yielded an IC50 in test [1] of 50 nM.

With `Cc1cc(C(F)(F)F)ccc1NC(=O)[C@@H]1C[C@@H](C)c2c(N3CCN(C(=O)c4ncccc4O)CC3)c(=O)n3nc(C4=CCOCC4)nc3n21` [Example 15D, (7R,9S)-2-(3,6-dihydro-2H-pyran-4-yl)-6-(4-(3-hydroxypicolinoyl)piperazin-1-yl)-7-methyl-N-(2-methyl-4-(trifluoromethyl)phenyl)-5-oxo-5,7,8,9-tetrahydropyrrolo[1,2-c][1,2,4]triazolo[1,5-a]pyrimidine-9-carboxamide], the GI50 with SW48 cells and in the test with DLD1-WRN-KO cells was greater than 10000 nM in each case. The molecule also showed an IC50 in test [1] of 61000 nM.

On to `CC(=O)N1CCN(c2c3n(c4nc(-c5ccccc5)nn4c2=O)C(C(=O)Nc2ccc(C(F)(F)F)cc2)CC3)CC1` (racemic) [Example 22, rac-6-(4-acetylpiperazin-1-yl)-5-oxo-2-phenyl-N-(4-(trifluoromethyl)phenyl)-5,7,8,9-tetrahydropyrrolo[1,2-c][1,2,4]triazolo[1,5-a]pyrimidine-9-carboxamide], for which the GI50 is 6000 nM in the test with SW48 cells and greater than 10000 nM in the test with DLD1-WRN-KO cells. The same molecule showed an IC50 in test [1] of 700 nM.

Turning to `CC(=O)N1CCN(c2c3n(c4nc(C5=CCOCC5)nn4c2=O)C(C(=O)Nc2ccc(C(F)(F)F)cc2)CC3)CC1` (racemic) [Example 24, rac-6-(4-acetylpiperazin-1-yl)-2-(3,6-dihydro-2H-pyran-4-yl)-5-oxo-N-(4-(trifluoromethyl)phenyl)-5,7,8,9-tetrahydropyrrolo[1,2-c][1,2,4]triazolo[1,5-a]pyrimidine-9-carboxamide], the GI50 was 4000 nM with SW48 cells and greater than 10000 nM with DLD1-WRN-KO cells. In test [1], inhibition was half-maximal at 2000 nM (IC50).

As for `Cc1cc(C(F)(F)F)ccc1NC(=O)[C@H]1CCc2c(N3CCN(C(=O)c4nccc(Cl)c4O)CC3)c(=O)n3nc(C4=CCOCC4)nc3n21` [Example 19A, (R)-6-(4-(4-chloro-3-hydroxypicolinoyl)piperazin-1-yl)-2-(3,6-dihydro-2H-pyran-4-yl)-N-(2-methyl-4-(trifluoromethyl)phenyl)-5-oxo-5,7,8,9-tetrahydropyrrolo[1,2-c][1,2,4]triazolo[1,5-a]pyrimidine-9-carboxamide], the GI50 with SW48 cells was 200 nM; with DLD1-WRN-KO cells it was greater than 10000 nM. Further, the IC50 in test [1] came to 40 nM.

As to `Cc1ncnc(C(=O)N2CCN(c3c4n(c5nc(C6=CCOCC6)nn5c3=O)[C@H](C(=O)Nc3ccc(C(F)(F)F)cc3Cl)C[C@@H]4C)C[C@H]2C)c1O` [Example 18B, (7S,9S)—N-(2-chloro-4-(trifluoromethyl)phenyl)-2-(3,6-dihydro-2H-pyran-4-yl)-6-((R)-4-(5-hydroxy-6-methylpyrimidine-4-carbonyl)-3-methylpiperazin-1-yl)-7-methyl-5-oxo-5,7,8,9-tetrahydropyrrolo[1,2-c][1,2,4]triazolo[1,5-a]pyrimidine-9-carboxamide], the GI50 in the test on SW48 cells and with DLD1-WRN-KO cells was greater than 10000 nM in each case. In test [1], this molecule returned an IC50 of 36000 nM.

Take `C[C@@H]1C[C@H](C(=O)Nc2ccc(C(F)(F)F)cc2Cl)n2c1c(N1CCN(C(=O)c3ccnc(F)c3O)CC1)c(=O)n1nc(C3=CCOCC3)nc21` [Example 12, (7R,9R)—N-(2-chloro-4-(trifluoromethyl)phenyl)-2-(3,6-dihydro-2H-pyran-4-yl)-6-(4-(2-fluoro-3-hydroxyisonicotinoyl)piperazin-1-yl)-7-methyl-5-oxo-5,7,8,9-tetrahydropyrrolo[1,2-c][1,2,4]triazolo[1,5-a]pyrimidine-9-carboxamide]: the GI50 in the test with SW48 cells is 300 nM; in the test on DLD1-WRN-KO cells it was greater than 10000 nM. The molecule further returned an IC50 in test [1] of 30 nM.

In the case of `C[C@@H]1C[C@H](C(=O)Nc2ccc(C(F)(F)F)cc2Cl)n2c1c(N1CCN(C(=O)c3nccc(Cl)c3O)CC1)c(=O)n1nc(N3CCOCC3)nc21` [Example 1A, (7R,9R)-6-(4-(4-chloro-3-hydroxypicolinoyl)piperazin-1-yl)-N-(2-chloro-4-(trifluoromethyl)phenyl)-7-methyl-2-morpholino-5-oxo-5,7,8,9-tetrahydropyrrolo[1,2-c][1,2,4]triazolo[1,5-a]pyrimidine-9-carboxamide], the GI50 in the test with SW48 cells is 40 nM; in the test with DLD1-WRN-KO cells, greater than 10000 nM. Besides, it took 20 nM to reach half-maximal inhibition in test [1] (IC50).
